{"source": "patent EP0394283B1", "about": "“USE OF A TRIPEPTIDE FOR THE PREPARATION OF PHARMACEUTICAL COMPOSITIONS AND A PHARMACEUTICAL COMPOSITION AND METHOD” (Hafslund Nycomed AS, priority 1987, dated 1992)", "system": "large intestinal epithelium", "test": "Mitotic rate (Colcemid-arrested metaphases per 500 crypt cells) in the large intestinal epithelium after i.p. injection", "assay_type": "in vivo, hairless mice", "settings": "dose of 10⁻¹² mole per animal, at the doses and times tested", "experimental": "All in vivo experiments were performed with hairless mice at 0800-0900 AM. The fractions were suspended in distilled water, slightly acidified (pH=6) and injected i.p. at different doses dependent on the purity of the fraction. The controls received solvent only. The pattern of cell proliferation after injecting the peptide was examined by varying the time between treatment and sacrifice.\nTwo hours before sacrifice (except for the experiments testing tissue specificity in the kidney) all animals received Colcemid 0.15 mg per animal i.p. ³HTdR (tritiated thymidine) was injected 30 minutes before sacrifice (30 µCi per animal i.p.). […]\nMitotic rate: After routine dehydration and paraffin embedding, sections were cut at 5 µm and stained with haematoxylin. Colcemid-arrested mitoses per 500 crypt cells were determined in ten longitudinally cut crypts in ileum and colon. […] The number of accumulated metaphases in epidermis was determined by counting 25 vision fields of interfollicular epidermis (eyepiece 12.5, objective 40) and expressed as mitoses per vision field per 2h.", "note": "Residues, ends and D or L forms follow the SMILES beside them.", "data": [{"smiles": "O=C(O)CC[C@H](NC(=O)[C@@H]1CCC(=O)N1)C(=O)N[C@@H](CC(=O)O)C(=O)N[C@@H](CO)C(=O)NCC(=O)O", "note": "[pGlu-Glu-Asp-Ser-Gly(OH)] (HELM PEPTIDE1{[Glp].E.D.S.G}$$$$V2.0)", "values": [{"measurement": "cell proliferation in the large intestinal epithelium", "value": "unchanged"}]}]}
